From ChEMBL document CHEMBL5465560, “Selectivity Literature for EUbOPEN Chemogenomic Library” (2024) come the findings set out here.

Test [1] concerns the target Fibroblast growth factor receptor 2 (Homo sapiens) (UniProt P21802). In words: Selectivity interaction (Kinase panel (Z-LYTE Assay)) EUB0001632a FGFR2. Conditions: at 10 µM.
Test [2] concerns the target STE20/SPS1-related proline-alanine-rich protein kinase (Homo sapiens) (UniProt Q9UEW8). In words: Selectivity interaction (LanthaScreen Eu Kinase Binding Assay) EUB0001632a STK39. Conditions: at 10 µM.
Test [3] concerns the target Non-receptor tyrosine-protein kinase TYK2 (Homo sapiens, UniProt P29597). In words: Selectivity interaction (KinomeScan (DiscoverX)) EUB0001619a TYK2. Conditions: at 1 µM.
The test system of test [4] is Tyrosine-protein kinase ABL1 (Homo sapiens), P00519 [F317L]. Conditions: at 10 µM.
Test [5] deals with T1, Serine/threonine-protein kinase D2 (Homo sapiens) (UniProt Q9BZL6).
T1 sequence (whole entry): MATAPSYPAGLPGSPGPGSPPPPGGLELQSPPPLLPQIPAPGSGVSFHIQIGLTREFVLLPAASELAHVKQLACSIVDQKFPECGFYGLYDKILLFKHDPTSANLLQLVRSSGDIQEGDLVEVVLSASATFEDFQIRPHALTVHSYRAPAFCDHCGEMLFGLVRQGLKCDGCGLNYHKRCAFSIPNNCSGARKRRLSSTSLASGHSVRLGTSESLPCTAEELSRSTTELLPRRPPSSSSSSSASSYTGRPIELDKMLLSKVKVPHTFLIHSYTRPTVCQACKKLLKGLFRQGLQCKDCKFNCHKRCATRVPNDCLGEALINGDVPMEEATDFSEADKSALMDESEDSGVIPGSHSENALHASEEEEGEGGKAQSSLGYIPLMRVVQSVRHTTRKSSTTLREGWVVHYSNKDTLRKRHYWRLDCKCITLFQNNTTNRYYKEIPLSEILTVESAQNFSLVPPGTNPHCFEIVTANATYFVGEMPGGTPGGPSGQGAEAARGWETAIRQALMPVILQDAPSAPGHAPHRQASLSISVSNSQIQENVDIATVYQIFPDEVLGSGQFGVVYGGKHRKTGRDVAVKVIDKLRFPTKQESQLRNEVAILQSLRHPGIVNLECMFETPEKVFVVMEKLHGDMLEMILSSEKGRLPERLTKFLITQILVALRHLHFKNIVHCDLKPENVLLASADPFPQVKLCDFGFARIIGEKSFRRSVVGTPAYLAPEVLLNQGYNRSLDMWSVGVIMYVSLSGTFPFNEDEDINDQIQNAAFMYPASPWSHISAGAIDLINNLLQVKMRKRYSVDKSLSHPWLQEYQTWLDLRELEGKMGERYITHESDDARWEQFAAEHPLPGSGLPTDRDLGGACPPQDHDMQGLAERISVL
In words: Selectivity interaction (KinomeScan (DiscoverX)) EUB0000655a PRKD2. Particulars: at 10 µM.

For test [6], the system named is Tyrosine-protein kinase ABL1 (Homo sapiens), P00519 [T315I]. In words: Selectivity interaction (KinomeScan (DiscoverX)) EUB0001079a ABL1. Conditions: at 1 µM.
The target in test [7] is T2, Serine/threonine-protein kinase Nek1 (Homo sapiens) (UniProt Q96PY6).
T2 sequence (whole entry): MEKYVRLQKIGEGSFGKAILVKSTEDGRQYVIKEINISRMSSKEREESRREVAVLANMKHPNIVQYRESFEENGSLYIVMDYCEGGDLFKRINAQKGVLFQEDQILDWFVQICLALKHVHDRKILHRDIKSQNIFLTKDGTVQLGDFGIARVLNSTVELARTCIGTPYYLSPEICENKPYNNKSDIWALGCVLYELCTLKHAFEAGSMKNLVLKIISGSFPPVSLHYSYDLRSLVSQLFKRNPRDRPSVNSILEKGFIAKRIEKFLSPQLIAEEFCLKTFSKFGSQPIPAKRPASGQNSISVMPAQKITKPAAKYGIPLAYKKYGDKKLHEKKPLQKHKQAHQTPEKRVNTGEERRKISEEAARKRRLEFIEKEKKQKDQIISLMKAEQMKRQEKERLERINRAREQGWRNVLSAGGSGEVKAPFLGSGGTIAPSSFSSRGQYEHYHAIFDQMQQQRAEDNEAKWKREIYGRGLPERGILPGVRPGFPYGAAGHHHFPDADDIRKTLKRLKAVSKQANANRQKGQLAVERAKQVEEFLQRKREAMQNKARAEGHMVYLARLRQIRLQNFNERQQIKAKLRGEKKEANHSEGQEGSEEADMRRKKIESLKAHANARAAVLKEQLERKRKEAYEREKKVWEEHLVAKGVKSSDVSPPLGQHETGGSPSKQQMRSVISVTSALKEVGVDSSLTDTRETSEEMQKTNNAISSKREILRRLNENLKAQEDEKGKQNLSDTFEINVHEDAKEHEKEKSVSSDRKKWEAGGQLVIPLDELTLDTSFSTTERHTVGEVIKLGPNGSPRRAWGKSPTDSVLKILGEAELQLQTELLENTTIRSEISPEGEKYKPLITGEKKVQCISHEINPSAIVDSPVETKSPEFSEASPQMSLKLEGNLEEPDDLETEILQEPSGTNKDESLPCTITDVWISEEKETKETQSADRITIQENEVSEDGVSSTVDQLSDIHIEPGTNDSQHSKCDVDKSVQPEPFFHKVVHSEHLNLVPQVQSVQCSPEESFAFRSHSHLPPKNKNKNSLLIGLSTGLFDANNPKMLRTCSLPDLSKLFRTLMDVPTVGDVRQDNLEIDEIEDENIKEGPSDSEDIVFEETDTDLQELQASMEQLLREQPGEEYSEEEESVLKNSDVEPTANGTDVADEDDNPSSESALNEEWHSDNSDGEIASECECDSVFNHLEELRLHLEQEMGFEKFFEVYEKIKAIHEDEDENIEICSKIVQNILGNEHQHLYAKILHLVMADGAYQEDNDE
In words: Selectivity interaction (KinomeScan (DiscoverX)) EUB0000229b NEK1. Particulars: at 10 µM.

Chain of Fibroblast growth factor receptor 2 (Homo sapiens) (P21802 22-821 limits assumed): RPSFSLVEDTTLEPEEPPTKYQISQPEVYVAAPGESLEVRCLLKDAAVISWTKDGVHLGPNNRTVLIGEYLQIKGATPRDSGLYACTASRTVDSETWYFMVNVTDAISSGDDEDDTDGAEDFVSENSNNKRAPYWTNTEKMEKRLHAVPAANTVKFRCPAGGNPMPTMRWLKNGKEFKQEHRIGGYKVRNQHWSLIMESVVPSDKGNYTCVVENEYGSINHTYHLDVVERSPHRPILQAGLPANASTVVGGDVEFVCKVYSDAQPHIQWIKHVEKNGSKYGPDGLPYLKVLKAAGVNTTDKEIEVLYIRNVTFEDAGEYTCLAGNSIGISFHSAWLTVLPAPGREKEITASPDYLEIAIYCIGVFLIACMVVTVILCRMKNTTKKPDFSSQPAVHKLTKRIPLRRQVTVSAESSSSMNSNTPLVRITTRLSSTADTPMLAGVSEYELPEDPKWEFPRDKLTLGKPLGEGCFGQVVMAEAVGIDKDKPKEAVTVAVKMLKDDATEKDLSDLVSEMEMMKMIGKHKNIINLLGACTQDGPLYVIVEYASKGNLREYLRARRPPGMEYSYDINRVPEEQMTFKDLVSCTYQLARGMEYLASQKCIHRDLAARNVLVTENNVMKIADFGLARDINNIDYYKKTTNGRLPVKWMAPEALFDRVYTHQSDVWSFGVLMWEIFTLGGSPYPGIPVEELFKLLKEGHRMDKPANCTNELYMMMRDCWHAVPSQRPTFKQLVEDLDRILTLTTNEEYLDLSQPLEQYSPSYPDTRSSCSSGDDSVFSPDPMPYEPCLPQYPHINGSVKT
Chain of Non-receptor tyrosine-protein kinase TYK2 (P29597 whole entry): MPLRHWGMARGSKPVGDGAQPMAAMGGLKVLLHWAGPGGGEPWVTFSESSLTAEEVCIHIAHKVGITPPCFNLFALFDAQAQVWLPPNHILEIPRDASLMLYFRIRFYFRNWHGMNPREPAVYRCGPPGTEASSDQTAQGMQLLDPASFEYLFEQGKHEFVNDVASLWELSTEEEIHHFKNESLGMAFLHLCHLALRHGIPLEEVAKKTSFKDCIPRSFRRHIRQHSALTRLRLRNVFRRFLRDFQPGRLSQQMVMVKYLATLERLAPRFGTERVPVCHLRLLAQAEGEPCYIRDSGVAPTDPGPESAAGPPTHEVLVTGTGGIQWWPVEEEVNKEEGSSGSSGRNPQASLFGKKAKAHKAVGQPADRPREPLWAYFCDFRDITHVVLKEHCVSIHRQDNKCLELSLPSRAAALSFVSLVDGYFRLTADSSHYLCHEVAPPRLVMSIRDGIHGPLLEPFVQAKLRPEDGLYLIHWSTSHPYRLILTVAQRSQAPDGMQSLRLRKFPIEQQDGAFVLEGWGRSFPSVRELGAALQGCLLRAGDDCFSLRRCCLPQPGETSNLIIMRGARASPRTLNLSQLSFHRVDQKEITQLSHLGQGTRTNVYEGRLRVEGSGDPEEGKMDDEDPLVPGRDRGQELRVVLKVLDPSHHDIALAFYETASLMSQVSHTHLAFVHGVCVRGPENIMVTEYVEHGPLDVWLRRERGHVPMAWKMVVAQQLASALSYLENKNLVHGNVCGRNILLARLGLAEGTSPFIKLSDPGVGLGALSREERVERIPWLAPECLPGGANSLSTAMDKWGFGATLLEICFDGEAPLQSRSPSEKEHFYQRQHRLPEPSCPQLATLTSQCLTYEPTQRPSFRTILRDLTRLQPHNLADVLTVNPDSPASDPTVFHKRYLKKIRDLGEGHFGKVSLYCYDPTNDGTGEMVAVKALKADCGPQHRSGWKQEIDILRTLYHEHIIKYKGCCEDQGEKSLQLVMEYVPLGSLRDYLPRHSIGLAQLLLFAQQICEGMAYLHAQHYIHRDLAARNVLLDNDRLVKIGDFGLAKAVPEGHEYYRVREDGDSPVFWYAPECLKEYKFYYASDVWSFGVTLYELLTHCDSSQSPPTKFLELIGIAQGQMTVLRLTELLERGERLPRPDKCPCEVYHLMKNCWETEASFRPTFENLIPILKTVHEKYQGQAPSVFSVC

For the compound `Cn1cc(-n2cnc3c(NCc4nc5cc(Cl)c(Cl)cc5[nH]4)nc(N4CCOCC4)nc32)cn1`, the % of control in test [1] turned out to be 17.8%. Further, the % of inhibition in test [2] is -29.3%.

For the compound `N#Cc1cccc(-c2c[nH]c3ncnc(N4CCOCC4)c23)c1`, in test [3], the % of control was 69%.

For the compound `Cc1cc([C@@H](C)Nc2ccccc2C(=O)O)c2nc(N3CCOCC3)cc(=O)n2c1` [AZD-6482], in test [4], the % of control came to 87%.

In the case of `CN(C)CCOc1ccc(-c2nc(-c3ccncc3)c(-c3ccc4c(c3)CC/C4=N\O)[nH]2)cc1`, the % of control in test [5] was 80%.

Consider `Nc1cnc(N2CCc3cc(S(=O)(=O)Nc4c(F)cc(Cl)cc4F)cc(N4CCCC4=O)c32)nc1` [TP-020n], for which the % of control in test [6] was 98%.

Take `COc1cc(N(C)c2ccnc3ccc(C(F)(F)F)cc23)cc(OC)c1OC`: the % binding in test [7] worked out at 78%.
